Test results: the supplement of paper PMC10331698
± gives the standard deviation of the averaged measurements.

Legend:
Experiment in all cases: level (log10 ratio to DMSO vehicle control); higher = higher biomarker level / cell amount than vehicle control
[1] = compound: C=C(C)C(=O)OCCC(F)(F)C(F)(F)C(F)(F)C(F)(F)C(F)(C(F)(F)F)C(F)(F)F [(Perfluoro-5-methylhexyl)ethyl 2-methylprop-2-enoate]; conditions: in DMSO
Description: (§1)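 BioMAP Diversity Plus panel of 12 human primary cell co-culture systems (3C, 4H, LPS, SAg, BT, BF4T, BE3C, CASM3C, HDF3CGF, KF3CT, MyoF, Mphg). Compounds were added 1 h before stimulation and left for 24 h (MyoF 48 h; BT 72 h for soluble read-outs or 6 d for IgG). Biomarkers were read by ELISA, cytotoxicity by SRB, PBMC viability and proliferation by Alamar Blue. Each well value was divided by the mean of 8 DMSO control wells on the same plate and log10 transformed; duplicate blinded samples were tested at 4 concentrations.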

Pentafluoropropionamide = compound: NC(=O)C(F)(F)C(F)(F)F [Pentafluoropropionamide]; conditions: in DMSO
Description: as §1

Perfluoroheptanoic acid = compound: O=C(O)C(F)(F)C(F)(F)C(F)(F)C(F)(F)C(F)(F)C(F)(F)F [Perfluoroheptanoic acid]; conditions: in DMSO
Description: as §1

[2] = compound: O=C(O)C(F)(F)C(F)(F)C(F)F [4H-Perfluorobutanoic acid]; conditions: in DMSO
Description: as §1

Perfluoropropanoic acid = compound: O=C(O)C(F)(F)C(F)(F)F [Perfluoropropanoic acid]; conditions: in DMSO
Description: as §1

[3] = compound: OCC(F)(F)OC(F)(F)C(F)(F)OC(F)(F)CO [1H,1H,8H,8H-Perfluoro-3,6-dioxaoctane-1,8-diol]; conditions: in DMSO
Description: as §1

[4] = compound: OCCC(F)(F)C(F)(F)C(F)(F)C(F)(F)C(F)(F)C(F)(F)F [6:2 Fluorotelomer alcohol]; conditions: in DMSO
Description: as §1

[5] = compound: OCCCC(F)(F)C(F)(F)C(F)(F)C(F)(F)C(F)(F)C(F)(F)C(F)(F)F [7:3 Fluorotelomer alcohol]; conditions: 6700 nM; in DMSO
Description: as §1

Test System	level (log10) ([1]; 6700 nM)	level (log10) ([1]; 20000 nM)	level (log10) (Pentafluoropropionamide; 6700 nM)	level (log10) (Pentafluoropropionamide; 20000 nM)	level (log10) (Pentafluoropropionamide; 60000 nM)	level (log10) (Perfluoroheptanoic acid; 6700 nM)	level (log10) (Perfluoroheptanoic acid; 20000 nM)	level (log10) (Perfluoroheptanoic acid; 60000 nM)	level (log10) ([2]; 6700 nM)	level (log10) ([2]; 20000 nM)	level (log10) ([2]; 60000 nM)	level (log10) (Perfluoropropanoic acid; 6700 nM)	level (log10) (Perfluoropropanoic acid; 20000 nM)	level (log10) (Perfluoropropanoic acid; 60000 nM)	level (log10) ([3]; 6700 nM)	level (log10) ([3]; 20000 nM)	level (log10) ([3]; 60000 nM)	level (log10) ([4]; 6700 nM)	level (log10) ([4]; 20000 nM)	level (log10) [5]
BF4T:IL-1alpha	-0.0155 ± 0.021	-0.014 ± 0.03	-0.0165 ± 0.0021	-0.016 ± 0.021	0.0065 ± 0.021	-0.0085 ± 0.023	-0.0015 ± 0.005	0.013 ± 0.0099	-0.02 ± 0.0014	-0.019 ± 0.014	0.0085 ± 0.012	-0.0325 ± 0.005	0.002	0.013 ± 0.03	-0.004 ± 0.0042	-0.01 ± 0.0042	0.012 ± 0.0028	-0.002 ± 0.0014	-0.0125 ± 0.021	-0.0045 ± 0.012
BF4T:Keratin 8/18	-0.024	-0.0115 ± 0.0078	0.0075 ± 0.043	0.0395 ± 0.05	0.0075 ± 0.032	-0.0285 ± 0.0092	-0.018 ± 0.0057	0.0045 ± 0.026	-0.027 ± 0.027	-0.0025 ± 0.013	0.0035 ± 0.021	-0.032 ± 0.0028	-0.004 ± 0.0014	0.027 ± 0.016	0.004 ± 0.0085	-0.0075 ± 0.018	0.0205 ± 0.00071	0.0035 ± 0.0035	0.005 ± 0.0042	0.0045 ± 0.0035
BF4T:MMP-1	-0.0205 ± 0.0021	-0.0095 ± 0.0021	-0.005 ± 0.0099	-0.0105 ± 0.0078	0.012 ± 0.016	-0.0005 ± 0.028	0.001 ± 0.03	0.039 ± 0.051	-0.0075 ± 0.019	0 ± 0.034	0.006 ± 0.038	0.003 ± 0.0071	0.0035 ± 0.029	0.009 ± 0.033	0.0115 ± 0.022	0.013 ± 0.028	0.0135 ± 0.026	0.0065 ± 0.005	0.014 ± 0.021	0.0005 ± 0.018
BF4T:MMP-3	-0.0975 ± 0.022	-0.057 ± 0.041	-0.024 ± 0.011	-0.007	-0.003 ± 0.033	-0.027 ± 0.023	-0.011	0.046 ± 0.048	-0.0025 ± 0.012	-0.014 ± 0.02	-0.007 ± 0.023	-0.018 ± 0.0028	0.0015 ± 0.026	0.0085 ± 0.028	-0.01 ± 0.045	-0.0285 ± 0.057	-0.0095 ± 0.037	-0.004 ± 0.0042	-0.0055 ± 0.0035	-0.013 ± 0.014
BF4T:MMP-9	-0.036 ± 0.05	-0.007 ± 0.038	0.02 ± 0.024	-0.001 ± 0.021	0.027 ± 0.0042	0.0145 ± 0.016	0.0445 ± 0.022	0.103 ± 0.054	-0.018 ± 0.028	-0.0245 ± 0.036	-0.008 ± 0.038	-0.0065 ± 0.036	-0.0065 ± 0.037	0.0035 ± 0.032	-0.026 ± 0.047	-0.0145 ± 0.025	0.01 ± 0.037	-0.0025 ± 0.011	-0.0105 ± 0.00071	-0.0235 ± 0.018
BF4T:PAI-I	-0.01 ± 0.018	-0.023 ± 0.0057	-0.0005 ± 0.0035	-0.005 ± 0.016	0.0015 ± 0.011	-0.0045 ± 0.019	0.0005 ± 0.025	0.0015 ± 0.028	0.0025 ± 0.013	-0.01 ± 0.0042	0.0105 ± 0.035	-0.004 ± 0.023	0.01 ± 0.013	0.029 ± 0.044	-0.005 ± 0.02	-0.015 ± 0.011	-0.001 ± 0.013	0.013 ± 0.013	0.011 ± 0.0099	-0.0105 ± 0.005
BF4T:SRB	-0.016 ± 0.011	-0.007 ± 0.025	-0.0035 ± 0.00071	-0.007 ± 0.0071	-0.004 ± 0.0042	-0.0085 ± 0.00071	-0.0115 ± 0.00071	-0.0035 ± 0.018	0.0005 ± 0.0021	-0.008 ± 0.0057	-0.006 ± 0.0042	-0.002 ± 0.0028	-0.0025 ± 0.0064	-0.0055 ± 0.0064	-0.0045 ± 0.013	-0.0065 ± 0.005	-0.0055 ± 0.0021	-0.0065 ± 0.005	-0.0055 ± 0.0078	-0.008 ± 0.017
BF4T:tPA	-0.002 ± 0.0057	-0.037 ± 0.031	-0.013 ± 0.0028	-0.014 ± 0.0042	0 ± 0.02	-0.0125 ± 0.005	-0.0145 ± 0.015	0.004 ± 0.073	-0.002 ± 0.037	0.003 ± 0.028	0.0475 ± 0.022	-0.006 ± 0.024	0.025 ± 0.047	0.037 ± 0.04	0.0015 ± 0.021	0.003 ± 0.013	0.0045 ± 0.0078	-0.0215 ± 0.032	-0.0135 ± 0.021	0.0105 ± 0.015
BF4T:uPA	-0.0295 ± 0.0064	-0.063 ± 0.0014	-0.013 ± 0.0085	-0.0075 ± 0.0078	0.0045 ± 0.018	-0.017 ± 0.0057	-0.0115 ± 0.012	0.009 ± 0.0085	0.002 ± 0.016	0.019 ± 0.0014	0.0105 ± 0.0021	-0.0035 ± 0.033	0.0105 ± 0.037	0.019 ± 0.033	-0.0065 ± 0.028	-0.0065 ± 0.03	-0.007 ± 0.03	-0.0185 ± 0.012	-0.006 ± 0.011	-0.011 ± 0.0057
BT:B cell Proliferation	-0.027 ± 0.011	0.001 ± 0.017	0.005 ± 0.057	-0.0215 ± 0.019	0.0205 ± 0.019	0.018 ± 0.0085	0.0145 ± 0.033	0.061 ± 0.028	0.016 ± 0.0099	0.0055 ± 0.019	0.0065 ± 0.036	0.0125 ± 0.044	-0.041 ± 0.0085	-0.002 ± 0.051	-0.011 ± 0.0071	0 ± 0.0014	-0.0145 ± 0.0078	0.022 ± 0.0057	-0.01 ± 0.014	-0.011 ± 0.0042
BT:PBMC Cytotoxicity	0.004 ± 0.0057	0.007 ± 0.021	0.0065 ± 0.042	0.013 ± 0.034	-0.02 ± 0.0014	-0.0175 ± 0.0064	0.001 ± 0.0057	0.063 ± 0.0014	-0.0175 ± 0.018	-0.0075 ± 0.0035	-0.002 ± 0.047	-0.0215 ± 0.056	-0.013 ± 0.027	-0.005 ± 0.0085	0.003 ± 0.017	-0.0035 ± 0.013	-0.009	-0.0185 ± 0.026	-0.035 ± 0.0071	0.0245 ± 0.035
BT:Secreted IgG	-0.0085 ± 0.044	-0.023 ± 0.0085	0.0065 ± 0.039	-0.0075 ± 0.046	0.0155 ± 0.0064	0.0185 ± 0.0092	0.007 ± 0.027	-0.0365 ± 0.011	0.0315 ± 0.036	0.0205 ± 0.03	0.014 ± 0.041	0.036 ± 0.028	0.03 ± 0.0057	-0.004 ± 0.057	-0.0135 ± 0.06	0.0085 ± 0.04	-0.054 ± 0.021	0.02	0.0195 ± 0.0035	-0.0105 ± 0.028
BT:sIL-2	-0.0185 ± 0.025	-0.0245 ± 0.039	0.0375 ± 0.0092	0.002 ± 0.03	0.038 ± 0.017	-0.0105 ± 0.14	0.0035 ± 0.037	-0.008 ± 0.075	0.0065 ± 0.054	-0.0275 ± 0.14	-0.056 ± 0.017	0.046 ± 0.016	-0.0205 ± 0.064	-0.007 ± 0.1	0.002 ± 0.059	-0.0075 ± 0.035	0.033 ± 0.042	-0.008 ± 0.057	-0.0135 ± 0.019	-0.037 ± 0.15
BT:sIL-6	-0.0095 ± 0.025	0.0305 ± 0.073	0.055 ± 0.027	0.017 ± 0.023	-0.0095 ± 0.052	0.02 ± 0.065	0.0175 ± 0.044	-0.0375 ± 0.071	-0.008	-0.046 ± 0.031	-0.0915 ± 0.026	0.021 ± 0.023	-0.0015 ± 0.0035	0.035 ± 0.024	0.057 ± 0.0099	0.0215 ± 0.021	-0.0445 ± 0.026	0.0115 ± 0.032	-0.038 ± 0.028	-0.0125 ± 0.073
BT:sIL-17A	-0.19 ± 0.31	-0.015 ± 0.15	0.0075 ± 0.1	-0.031 ± 0.051	0.0105 ± 0.015	0.047 ± 0.027	0.0865 ± 0.16	-0.0095 ± 0.22	0.067 ± 0.13	-0.085 ± 0.02	-0.158 ± 0.033	0.0325 ± 0.0064	-0.051 ± 0.12	-0.065 ± 0.15	0.144 ± 0.073	-0.0645 ± 0.022	-0.128 ± 0.16	0.0375 ± 0.015	-0.0005 ± 0.11	-0.0585 ± 0.17
